What all share (type): cell-based
In assay [1] the test system is Escherichia coli ATCC 35218. Description: Etest strip MIC, conventional method by flooding of the medium. Further details: key: R = resistant. The method, then:
(§1) Another method for detecting sensitivity to antibiotics uses an antibiotic gradient deposited on an agar medium. For this purpose, paper or plastic strips are impregnated with a concentration gradient of antibiotic. The strips soaked in this way are graduated so as to indicate the antibiotic concentration values present along the strip. One or more strips may be placed on a Mueller-Hinton agar, inoculated beforehand in the same way as the above method. After incubation, an ovoid area of inhibition of microbial growth around each strip appears if the microorganism present in the sample is sensitive to the antibiotic contained in the strip. It is thus possible to deduce a minimum inhibitory concentration (MIC) for microbial growth. The minimum concentration of the antimicrobial agent which makes it possible to inhibit the growth of the microorganism which is generally retained is thus the value of the concentration which can be read on the graduation directly below the point of contact between the zone of inhibition and the long edge of the strip. In other words, the MIC is the concentration visible at the limit of the zone of inhibition, at the boundary between the zone of growth of the microorganisms and the zone of non-growth. More particularly, the MIC can be read by noting the point at which the ovoid area of the zone of inhibition intersects the strip, and by noting the corresponding graduation.
(§2) According to a first experiment of this example, an inoculum of a strain of Escherichia coli ATCC 35218 (American Type Culture Collection) having a concentration of 0.5 McFarland is thus deposited in droplets along four Etest® strips (bioMérieux), each deposited on a Mueller Hinton E agar culture medium (bioMérieux). The strips contain respectively a concentration gradient of gentamicin, tetracycline, ampicillin/sulbactam, ampicillin. In the same manner, an inoculum of a strain of Escherichia coli ATCC 25922 having a concentration of 0.5 McFarland is deposited in droplets along four Etest® strips (bioMérieux), each deposited on a Mueller Hinton E agar culture medium (bioMérieux). The strips also contain a concentration gradient of gentamicin, tetracycline, ampicillin/sulbactam, ampicillin.
(§3) The values are given in μg/ml at different incubation times. The inhibition values for the flooding method are measured from images obtained by a shadowgraphy capture device as described above. The inhibition values for the method according to the invention are measured from images obtained by a shadowgraphy capture device at 5 hours, and visually at 7 hours.

The test system of assay [2] is Escherichia coli ATCC 35218. The experiment in a line: Etest strip MIC, deposition of the sample in droplets along the strip. Further details: key to minimum inhibitory concentration / MIC: R = resistant.
Description: (§4) FIGS. 8a to 8d and 9a to 9d illustrate this second example of implementation of the invention. According to FIG. 8a, a sample 1 is deposited in the form of a series of droplets, along an axis parallel to the long edge of a strip 3 containing a concentration gradient of chemical agent. The strip 3 comprises graduations of concentrations of chemical agent 13, making it possible to deduce a minimum inhibitory concentration of chemical agent. An example of such a strip is sold by the applicant under the trade name Etest®. According to the FIG. 8b, a strip 3 containing a chemical agent 5 is deposited on a culture medium 2 contained in a Petri dish 4 (for example a Petri dish with a diameter greater than or equal to 9 cm). The detail B in FIG. 8b is visible in FIG. 8c. A sample 1 is deposited in the form of a series of droplets in a deposition zone 8 along an axis 7 parallel to the long edge of the strip 3. In this example, 13 nanoliter drops are deposited by a Pipejet P9 Nanodispenser pipette sold by the company biofluidix and mounted on a robotic arm. The detail C in FIG. 8c is visible in FIG. 8d. 50 droplets are thus deposited along the axis 7 with an interval P of 800 μm. Each droplet covers a surface area of approximately 1 mm^2.
as §2
(§5) Fifty droplets, each with a volume of 13 nanoliters and spaced apart by 800 μm, are deposited along each strip. As a function of the concentration of 0.5 McFarland, it is thus estimated that approximately 2000 bacteria are present in each droplet. The eight culture media prepared in this way are then incubated and monitored periodically in order to determine the presence or the absence of a zone of inhibition and/or of growth of the microorganisms.
FIGS. 9a to 9d illustrate a plan view of the four media in which the sample of Escherichia coli ATCC 35218 was deposited. FIGS. 9a to 9d are obtained by means of a shadowgraphy capture device as presented in relation to FIG. 5. FIG. 9a presents a view after 5 hours of incubation of the sample in the presence of gentamicin. […] A minimum inhibitory concentration value is then obtained at the intersection between the straight line 14 and the long edge of the strip. A minimum inhibitory concentration (MIC) of 2 μg/ml is thus determined.
Advantageously, a straight line or an arc 15 delimiting the boundary of the zone of growth of microorganisms and the zone of inhibition may be sought, this straight line not necessarily being perpendicular to the long edge and thus reproducing said boundary more faithfully. This straight line or this arc corresponds to a portion of the ovoid area of inhibition observed with conventional inoculation methods and therefore enables better estimation of the MIC. In the case in which a straight line or an arc 15 is sought, the minimum inhibitory concentration may be obtained by tracing a line perpendicular to the long edge of the strip, crossing the point of intersection between the straight line 15 and the axis of deposition of the sample 7, then by seeking the graduation corresponding to this perpendicular line on the strip. […]

In assay [3] the test system is Escherichia coli ATCC 25922. The experiment in a line: Etest strip MIC, conventional method by flooding of the medium. The note with it: for MIC: Escherichia coli, ATCC25922, ATCC 25922, 0.5 McFarland, read-out: minimum inhibitory concentration; for minimum inhibitory concentration: ATCC 25922, 0.5 McFarland. The method, then: as §1, §2, §3
Assay [4] has as its system Escherichia coli ATCC 25922. Description: Etest strip MIC, deposition of the sample in droplets along the strip. As to conditions: for MIC: Escherichia coli, ATCC25922, ATCC 25922, 0.5 McFarland, read-out: minimum inhibitory concentration; for minimum inhibitory concentration: ATCC 25922, 0.5 McFarland.
Description: as §4, §2, §5
The minimum inhibitory concentration results obtained for the strains of Escherichia coli ATCC 35218 and also the strains of Escherichia coli ATCC 25922 are compared with the conventional method by flooding of the medium in table 1 below. The values are given in μg/ml at different incubation times. The inhibition values for the flooding method are measured from images obtained by a shadowgraphy capture device as described above. The inhibition values for the method according to the invention are measured from images obtained by a shadowgraphy capture device at 5 hours, and visually at 7 hours.

Setting [5] is: Escherichia coli, ATCC35218, droplets of 13 nanoliters, ATCC 35218 at 0.5 McFarland, after 5 hours of incubation, shadowgraphy (FIGS. 9a-9d), read-out: minimum inhibitory concentration (MIC).
Setting [6] is: incubation time 5 H (shadowgraphy).
Where [7] appears, read: Flooding, ATCC 35218, 0.5 McFarland, incubation time 6 H.
Setting [8] is: Flooding, ATCC 35218, 0.5 McFarland, incubation time 8 H.
Where [9] appears, read: Table 2, flooding, ATCC 35218, 28 H.
Setting [10] is: Deposition in droplets, ATCC 35218, 0.5 McFarland, incubation time 5 H (shadowgraphy).
Where [11] appears, read: Deposition in droplets, ATCC 35218, 0.5 McFarland, incubation time 7 H (visual).
The mark [12] stands for this setting: Table 2, droplet (replicate 1 where replicated), ATCC 35218, 0.5 McF, 5 H.
[13] abbreviates: Table 2, droplet (replicate 1 where replicated), ATCC 35218, 0.5 McF, 7 H.

Results on three compounds are retold here after US10870876B2, “Method for detecting a presence or absence of at least one first zone of inhibition” (BIOMÉRIEUX, priority 2015, dated 2020).

Converted amounts (≈) assume the structure as drawn.

Consider `CN(C)[C@@H]1C(O)=C(C(N)=O)C(=O)[C@@]2(O)C(O)=C3C(=O)c4c(O)cccc4[C@@](C)(O)[C@H]3C[C@@H]12` [Tetracycline, tetracycline], for which the MIC in assay [1] (Escherichia coli, ATCC35218, Flooding, ATCC 35218, 0.5 McFarland, incubation time 4 H, read-out: minimum inhibitory concentration) stood at 0.44 µg/mL (≈ 0.99 µM); in assay [1] (Escherichia coli, ATCC35218, Flooding, ATCC 35218, 0.5 McFarland, incubation time 5 H, read-out: minimum inhibitory concentration), 0.86 µg/mL (≈ 1.94 µM); in assay [1] (Escherichia coli, ATCC35218, Flooding, ATCC 35218, 0.5 McFarland, incubation time 6 H, read-out: minimum inhibitory concentration), 0.96 µg/mL (≈ 2.16 µM); in assay [1] (Escherichia coli, ATCC35218, Flooding, ATCC 35218, 0.5 McFarland, incubation time 8 H, read-out: minimum inhibitory concentration), 1.12 µg/mL (≈ 2.51 µM); in assay [1] (Escherichia coli, ATCC35218, Flooding, ATCC 35218, 0.5 McFarland, incubation time 24 H, read-out: minimum inhibitory concentration) it was 2.3 µg/mL (≈ 5.18 µM); in assay [1] (Escherichia coli, ATCC35218, Table 2, flooding, ATCC 35218, 4 H, read-out: MIC), 0.44 µg/mL (≈ 0.99 µM). The MIC in assay [1] (Escherichia coli, ATCC35218, Table 2, flooding, ATCC 35218, 5 H, read-out: MIC) came out at 0.86 µg/mL (≈ 1.94 µM); in assay [1] (Escherichia coli, ATCC35218, Table 2, flooding, ATCC 35218, 8 H, read-out: MIC), 1.12 µg/mL (≈ 2.51 µM); in assay [1] (Escherichia coli, ATCC35218, Table 2, flooding, ATCC 35218, 28 H, read-out: MIC) it was 2.3 µg/mL (≈ 5.18 µM); in assay [1] (Escherichia coli, ATCC35218, Table 2, flooding, ATCC 35218, column 4 headed 8 H (between 5 H and 7 H), read-out: MIC), 0.96 µg/mL (≈ 2.16 µM); in assay [2] (Escherichia coli, ATCC35218, Deposition in droplets, ATCC 35218, 0.5 McFarland, incubation time 5 H (shadowgraphy), read-out: minimum inhibitory concentration), 1.5 µg/mL (≈ 3.38 µM); in assay [2] (Escherichia coli, ATCC35218, Deposition in droplets, ATCC 35218, 0.5 McFarland, incubation time 7 H (visual), read-out: minimum inhibitory concentration), 2 µg/mL (≈ 4.5 µM). Also, the MIC came out at 1.5 µg/mL (≈ 3.38 µM) in assay [2] (Escherichia coli, ATCC35218, Table 2, droplet (replicate 1 where replicated), ATCC 35218, 0.5 McF, 5 H, read-out: MIC); 2 µg/mL (≈ 4.5 µM) in assay [2] (Escherichia coli, ATCC35218, Table 2, droplet (replicate 1 where replicated), ATCC 35218, 0.5 McF, 7 H, read-out: MIC); 1.5 µg/mL (≈ 3.38 µM) in assay [2] (setting [5]); 0.3 µg/mL (≈ 0.675 µM) in assay [3] (incubation time 4 H); 0.6 µg/mL (≈ 1.35 µM) in assay [3] (incubation time 5 H); 0.66 µg/mL (≈ 1.49 µM) in assay [3] (incubation time 6 H). Also, the MIC in assay [3] (incubation time 8 H) stood at 0.86 µg/mL (≈ 1.94 µM); in assay [3] (incubation time 24 H) it was 1.77 µg/mL (≈ 3.98 µM); in assay [4] (setting [6]), 1.5 µg/mL (≈ 3.38 µM); in assay [4] (incubation time 7 H (visual)), 2 µg/mL (≈ 4.5 µM).
For the compound `CC1(C)S[C@@H]2[C@H](NC(=O)[C@H](N)c3ccccc3)C(=O)N2[C@H]1C(=O)O` [Ampicillin, ampicillin], the minimum inhibitory concentration result in assay [1] (setting [7]) was “R”; in assay [1] (setting [8]), “R”; in assay [1] (Flooding, ATCC 35218, 0.5 McFarland, incubation time 18 H) it was “R”; in assay [2] (setting [10]), “R”; in assay [2] (setting [11]), “R”. The MIC entry in assay [1] (setting [9]) is “R”; in assay [2] (setting [5]) it was greater than 256 µg/mL; in assay [2] (setting [12]) it was “R”; in assay [2] (setting [13]), “R”; in assay [3] (incubation time 6 H) it was 3.43 µg/mL (≈ 9.82 µM); in assay [3] (incubation time 8 H), 5.21 µg/mL (≈ 14.9 µM). In addition, the MIC in assay [3] (incubation time 18 H) is 5.69 µg/mL (≈ 16.3 µM); in assay [4] (setting [6]), 8 µg/mL (≈ 22.9 µM); in assay [4] (incubation time 7 H (visual)) it was 8 µg/mL (≈ 22.9 µM).
In the case of gentamicin, the minimum inhibitory concentration in assay [1] (Flooding, ATCC 35218, 0.5 McFarland, incubation time 4 H) stood at 0.96 µg/mL; in assay [1] (Flooding, ATCC 35218, 0.5 McFarland, incubation time 5 H) it was 1.14 µg/mL; in assay [1] (setting [7]), 1.17 µg/mL; in assay [1] (setting [8]), 1.17 µg/mL; in assay [1] (Flooding, ATCC 35218, 0.5 McFarland, incubation time 24 H), 1.06 µg/mL; in assay [2] (setting [10]) it was 2 µg/mL. In addition, the minimum inhibitory concentration in assay [2] (setting [11]) was 2 µg/mL; in assay [3] (incubation time 4 H) it was 1.74 µg/mL; in assay [3] (incubation time 5 H), 1.51 µg/mL; in assay [3] (incubation time 6 H), 1.75 µg/mL; in assay [3] (incubation time 8 H) it was 1.82 µg/mL; in assay [3] (incubation time 24 H), 1.54 µg/mL. Besides, the minimum inhibitory concentration in assay [4] (setting [6]) and in assay [4] (incubation time 7 H (visual)) was 2 µg/mL each time. The MIC in assay [1] (Table 2, flooding, ATCC 35218, 4 H) was 0.96 µg/mL; in assay [1] (Table 2, flooding, ATCC 35218, 5 H), 1.14 µg/mL; in assay [1] (setting [9]), 1.06 µg/mL; in assay [2] (setting [12]) it was 2 µg/mL; in assay [2] (setting [13]), 2 µg/mL. For the same compound, the “minimum inhibitory concentration (MIC)” value in assay [2] (droplets of 13 nanoliters, ATCC 35218 at 0.5 McFarland, after 5 hours of incubation, shadowgraphy (FIGS. 9a-9d)) is 2 µg/mL.
